Experimental data from patent US11576943B2, “Functional food composition having cranial nerve protection effect and blood flow improvement effect” (chzin Co., Ltd., priority 2020, dated 2023).
Marks after values point to notes of the source that are not given here.

Legend:
[1] = cited from earlier work
rats = conditions: administered orally to rats; cited from earlier work
[2] = system: transient local cerebral ischemia animal model; experiment: Cranial neuroprotective action by oral administration in transient local cerebral ischemia animal model (MCAO); assay type: in vivo, sprague-dawly male rats
Method: The measurement of cranial neuroprotective action by oral administration of a sample in the transient local cerebral ischemia animal model was carried out as follows according to a known method.
Experimental animals were 7-week-old sprague-dawly male rats having a weight of 260 to 270 g and the experimental animals were adapted in the breeding room for 7 days before use under the environment in which the contrast cycle was controlled automatically by 12 hours. The temperature of the breeding room was maintained at 23±2° C., the humidity was 55±10%, and food and water were freely ingested.
In order to measure the neuroprotective action according to the oral administration of the sample, an animal model of cerebral ischemia was created. The middle cerebral artery occlusion (MCAO) surgery was performed to create the animal model of cerebral ischemia. […]
In order to measure the neuroprotective action of the sample according to the oral administration, the brain was excised 24 hours after the middle cerebral artery occlusion and stained with 2,3,5-triphenyltetrazolium chloride. […] The area of cerebral infarction (infarct area, mm^2) was measured using a computerized image analyzer, and the infarct volume (mm^3) was calculated by multiplying the total sum of the infarct area of each section by the thickness of the section. The measured values were expressed as mean±SEM (*p<0.05, **p<0.01).

Structure (SMILES)	solubility in water [1]	LD50 (rats) [mg/kg]	Cerebral infarct volume (mm^3) ([2]; 2 hours after induction of cerebral ischemia and 2 hours after reperfusion, brain excised 24 hours after MCAO, mean±SEM)	Cranial nerve protection effect (%) ([2]; 24 hours after MCAO, relative to physiological saline group)
CC(C)[C@@H]1CC[C@@H](C)C[C@H]1O (racemic) [dl-menthol]	rarely dissolved in water	3180	–	–
CC1=NN(c2ccccc2)C(=O)C1 [MCI-186]	–	–	184.2 ± 17.3** mm^3	47.71
